Source: US9133146B2, “Benzodioxane inhibitors of leukotriene production” (Boehringer Ingelheim International GmbH, priority 2011, dated 2015)

Each molecule was assayed on synthesis of LTB4 in human whole blood (assay: human whole blood (HWB) assay, LTB4 production inhibition after calcimycin). Details: heparinized human whole blood, calcimycin 20 μM, 37° C., plasma LTB4.
Type: cell-based
Protocol: The compounds of the invention are additionally tested in a human whole blood (HWB) assay to determine their ability to inhibit the synthesis of LTB4 in a cellular system. Compounds are combined with heparinized human whole blood and incubated for 15 minutes at 37° C. Calcimycin (20 μM final, prepared in phosphate-buffered saline, pH 7.4) is then added and the mixture is incubated for another 30 minutes at 37° C. The samples are centrifuged for 5 min at low speed (1500×g) and the plasma layer is removed. Plasma LTB4 concentrations are then measured using an antibody-based homogenous time-resolved fluorescence method (CisBio, Bedford, Mass.). In general, the preferred potency range (IC50) of compounds in the HWB assay is between 10 nM to 10 μM, the more preferred potency range is 10 nM to 1 μM, and the most preferred potency range is 10 nM to 100 nM.
`O[C@@H]1CCN(Cc2ccc(C3COc4ccccc4O3)cc2)C1` (mixture of isomers) [Example 9, (3S)-1-[4-(2,3-dihydro-1,4-benzodioxin-2-yl)benzyl]pyrrolidin-3-ol] was tested, and the IC50 was 285 nM.
`c1ccc2c(c1)OC[C@H](c1ccc(CN3CCC[C@H]4CCCCC43)cc1)O2` (stereo in doubt) [Example 85, (4aR,8aS)-1-{4-[(2S)-2,3-dihydro-1,4-benzodioxin-2-yl]benzyl}decahydroquinoline] gave an IC50 of 305 nM.
For `c1cnc2c(c1)OC[C@H](c1ccc(CN3[C@H]4CC[C@@H]3CC4)cc1)O2` [Example 145, (3S)-3-{4-[(1s,4s)-7-azabicyclo[2.2.1]hept-7-ylmethyl]phenyl}-2,3-dihydro[1,4]dioxino[2,3-b]pyridine], the IC50 was 28.4 nM.
`CC(C)(O)C(=O)NC1CCN(Cc2ccc([C@H]3COc4ccccc4O3)cc2)CC1` [Example 220, N-(1-{4-[(2S)-2,3-dihydro-1,4-benzodioxin-2-yl]benzyl}piperidin-4-yl)-2-hydroxy-2-methylpropanamide] gave an IC50 of 91.1 nM.
